Species on record: Rattus norvegicus
Test: Open TG-GATES - Regimen: Daily Repeat
Format: toxicity, organism-based, Sprague-Dawley
Parameters: regimen Daily Repeat, gender Male, age 6 weeks
Details: in vivo, po, 6 mg/kg, route gavage, dose level Middle; for APTT / Bas / Eos / Fbg / Hb / Lym / MCH / MCHC / MCV / Mono / Neu / PT / Plat / RBC / Ret / WBC: tissue Blood; for KIDNEY_L / KIDNEY_R / KIDNEY_TOTAL: tissue Kidney; for LIVER: tissue Liver; for ALP / ALT / AST / BUN / CRE / Ca / Cl / DBIL / GLC / IP / K / LDH / Na / PL / RALB / TBIL / TC / TG / TP / gamma-GTP: tissue Plasma

`OCCN1CCN(CCCN2c3ccccc3Sc3ccc(C(F)(F)F)cc32)CC1` [FLUPHENAZINE] was tested, and the TERMINAL_BW (72 h, time 3 day) was 198.7 g, the APTT (72 h, time 3 day) was 15.9 s and the Bas (72 h, time 3 day) was 0%. For the same compound, the Eos (72 h, time 3 day) was 0.6%, the Fbg (72 h, time 3 day) was 227.2 mg/dL and the Hb (72 h, time 3 day) was 15.1 g/dL. The Lym (72 h, time 3 day) was 88.4%, the MCH (72 h, time 3 day) was 21.2 pg and the MCHC (72 h, time 3 day) was 33.3%. The MCV (72 h, time 3 day) was 63.7 fL, the Mono (72 h, time 3 day) was 5.8% and the Neu (72 h, time 3 day) was 5.2%. The PT (72 h, time 3 day) was 12.2 s, the Plat (72 h, time 3 day) was 119.2 x10_4/uL and the RBC (72 h, time 3 day) was 711.6 x10_4/ul. For the same compound, the Ret (72 h, time 3 day) was 3.4%, the WBC (72 h, time 3 day) was 119.1 x10_2/uL and the KIDNEY_L (72 h, time 3 day) was 0.9 g. It also gave a KIDNEY_R (72 h, time 3 day) of 0.9 g, a KIDNEY_TOTAL (72 h, time 3 day) of 1.8 g and an LIVER (72 h, time 3 day) of 9.5 g. The ALP (72 h, time 3 day) was 909.4 IU/L, the ALT (72 h, time 3 day) was 35 IU/L and the AST (72 h, time 3 day) was 58.6 IU/L. For the same compound, the BUN (72 h, time 3 day) was 24.8 mg/dL, the CRE (72 h, time 3 day) was 0.6 mg/dL and the Ca (72 h, time 3 day) was 10.8 mg/dL. It also gave a Cl (72 h, time 3 day) of 106.4 meq/L, a DBIL (72 h, time 3 day) of 0.008 mg/dL and a GLC (72 h, time 3 day) of 177.4 mg/dL. For the same compound, the IP (72 h, time 3 day) was 8 mg/dL, the K (72 h, time 3 day) was 4.6 meq/L and the LDH (72 h, time 3 day) was 84.6 IU/L. The Na (72 h, time 3 day) was 138.4 meq/L, the PL (72 h, time 3 day) was 186.6 mg/dL and the RALB (72 h, time 3 day) was 4.3 g/dL. The TBIL (72 h, time 3 day) was 0.2 mg/dL, the TC (72 h, time 3 day) was 98.4 mg/dL and the TG (72 h, time 3 day) was 112.6 mg/dL. It also gave a TP (72 h, time 3 day) of 6.1 g/dL, a gamma-GTP (72 h, time 3 day) of 0.6 IU/L and a TERMINAL_BW ([…], time 7 day) of 230.3 g. It also gave a TERMINAL_BW ([…], time 14 day) of 284.3 g, a TERMINAL_BW ([…], time 28 day) of 346.8 g and an APTT ([…], time 7 day) of 16.8 s. The Bas ([…], time 7 day) was 0%, the Eos ([…], time 7 day) was 0.6% and the Fbg ([…], time 7 day) was 224.2 mg/dL. The Hb ([…], time 7 day) was 14 g/dL, the Lym ([…], time 7 day) was 78.6% and the MCH ([…], time 7 day) was 21 pg. For the same compound, the MCHC ([…], time 7 day) was 33.3%, the MCV ([…], time 7 day) was 63.1 fL and the Mono ([…], time 7 day) was 5.6%. The Neu ([…], time 7 day) was 15.2%, the PT ([…], time 7 day) was 12.1 s and the Plat ([…], time 7 day) was 82.3 x10_4/uL. For the same compound, the RBC ([…], time 7 day) was 668.6 x10_4/ul, the Ret ([…], time 7 day) was 3.6% and the WBC ([…], time 7 day) was 95.8 x10_2/uL. The APTT ([…], time 14 day) was 15.9 s, the Bas ([…], time 14 day) was 0% and the Eos ([…], time 14 day) was 0.8%. The Fbg ([…], time 14 day) was 217.2 mg/dL, the Hb ([…], time 14 day) was 14.4 g/dL and the Lym ([…], time 14 day) was 79.6%. It also gave an MCH ([…], time 14 day) of 20.1 pg, an MCHC ([…], time 14 day) of 33.3% and an MCV ([…], time 14 day) of 60.5 fL. The Mono ([…], time 14 day) was 5.8%, the Neu ([…], time 14 day) was 14% and the PT ([…], time 14 day) was 12.1 s. It also gave a Plat ([…], time 14 day) of 97 x10_4/uL, an RBC ([…], time 14 day) of 716.4 x10_4/ul and a Ret ([…], time 14 day) of 3.6%. It also gave a WBC ([…], time 14 day) of 128.9 x10_2/uL, an APTT ([…], time 28 day) of 17.2 s and a Bas ([…], time 28 day) of 0%. It also gave an Eos ([…], time 28 day) of 1.2%, a Fbg ([…], time 28 day) of 209.2 mg/dL and a Hb ([…], time 28 day) of 15.6 g/dL. It also gave a Lym ([…], time 28 day) of 83%, an MCH ([…], time 28 day) of 19.7 pg and an MCHC ([…], time 28 day) of 33.4%. For the same compound, the MCV ([…], time 28 day) was 58.9 fL, the Mono ([…], time 28 day) was 5% and the Neu ([…], time 28 day) was 10.6%. For the same compound, the PT ([…], time 28 day) was 12.3 s, the Plat ([…], time 28 day) was 89.8 x10_4/uL and the RBC ([…], time 28 day) was 792.6 x10_4/ul. For the same compound, the Ret ([…], time 28 day) was 2.2%, the WBC ([…], time 28 day) was 134.3 x10_2/uL and the KIDNEY_L ([…], time 7 day) was 1 g. The KIDNEY_R ([…], time 7 day) was 1 g, the KIDNEY_TOTAL ([…], time 7 day) was 2 g and the KIDNEY_L ([…], time 14 day) was 1.1 g. For the same compound, the KIDNEY_R ([…], time 14 day) was 1.1 g, the KIDNEY_TOTAL ([…], time 14 day) was 2.3 g and the KIDNEY_L ([…], time 28 day) was 1.2 g. The KIDNEY_R ([…], time 28 day) was 1.2 g, the KIDNEY_TOTAL ([…], time 28 day) was 2.4 g and the LIVER ([…], time 7 day) was 10.9 g. It also gave an LIVER ([…], time 14 day) of 11.9 g, an LIVER ([…], time 28 day) of 13.7 g and an ALP ([…], time 7 day) of 836 IU/L. It also gave an ALT ([…], time 7 day) of 33 IU/L, an AST ([…], time 7 day) of 62.6 IU/L and a BUN ([…], time 7 day) of 18 mg/dL. It also gave a CRE ([…], time 7 day) of 0.5 mg/dL, a Ca ([…], time 7 day) of 10.5 mg/dL and a Cl ([…], time 7 day) of 105.2 meq/L. For the same compound, the DBIL ([…], time 7 day) was 0.012 mg/dL, the GLC ([…], time 7 day) was 170.6 mg/dL and the IP ([…], time 7 day) was 8.4 mg/dL. It also gave a K ([…], time 7 day) of 4.8 meq/L, an LDH ([…], time 7 day) of 79.4 IU/L and a Na ([…], time 7 day) of 137.4 meq/L. It also gave a PL ([…], time 7 day) of 178.8 mg/dL, an RALB ([…], time 7 day) of 4.1 g/dL and a TBIL ([…], time 7 day) of 0.3 mg/dL. For the same compound, the TC ([…], time 7 day) was 96.4 mg/dL, the TG ([…], time 7 day) was 106 mg/dL and the TP ([…], time 7 day) was 6 g/dL. It also gave a gamma-GTP ([…], time 7 day) of 1 IU/L, an ALP ([…], time 14 day) of 859.2 IU/L and an ALT ([…], time 14 day) of 29.4 IU/L. It also gave an AST ([…], time 14 day) of 63.2 IU/L, a BUN ([…], time 14 day) of 18 mg/dL and a CRE ([…], time 14 day) of 0.5 mg/dL. The Ca ([…], time 14 day) was 10.7 mg/dL, the Cl ([…], time 14 day) was 103.6 meq/L and the DBIL ([…], time 14 day) was 0 mg/dL. For the same compound, the GLC ([…], time 14 day) was 190.8 mg/dL, the IP ([…], time 14 day) was 7.8 mg/dL and the K ([…], time 14 day) was 4.6 meq/L. For the same compound, the LDH ([…], time 14 day) was 99.2 IU/L, the Na ([…], time 14 day) was 135.2 meq/L and the PL ([…], time 14 day) was 141 mg/dL. The RALB ([…], time 14 day) was 4.2 g/dL, the TBIL ([…], time 14 day) was 0.3 mg/dL and the TC ([…], time 14 day) was 68 mg/dL. The TG ([…], time 14 day) was 109.2 mg/dL, the TP ([…], time 14 day) was 5.9 g/dL and the gamma-GTP ([…], time 14 day) was 1.6 IU/L. For the same compound, the ALP ([…], time 28 day) was 483.8 IU/L, the ALT ([…], time 28 day) was 32.8 IU/L and the AST ([…], time 28 day) was 58.6 IU/L. For the same compound, the BUN ([…], time 28 day) was 21.4 mg/dL, the CRE ([…], time 28 day) was 0.6 mg/dL and the Ca ([…], time 28 day) was 10.7 mg/dL. For the same compound, the Cl ([…], time 28 day) was 107.6 meq/L, the DBIL ([…], time 28 day) was 0.006 mg/dL and the GLC ([…], time 28 day) was 175.2 mg/dL. For the same compound, the IP ([…], time 28 day) was 6.3 mg/dL, the K ([…], time 28 day) was 4.5 meq/L and the LDH ([…], time 28 day) was 75 IU/L. The Na ([…], time 28 day) was 140.4 meq/L, the PL ([…], time 28 day) was 147 mg/dL and the RALB ([…], time 28 day) was 4.2 g/dL. The TBIL ([…], time 28 day) was 0.3 mg/dL, the TC ([…], time 28 day) was 66.4 mg/dL and the TG ([…], time 28 day) was 138.8 mg/dL. It also gave a TP ([…], time 28 day) of 6.3 g/dL and a gamma-GTP ([…], time 28 day) of 1.6 IU/L.

From ChEMBL document CHEMBL3885861, “Open TG-GATES”
